Literature values, collected in US6927272B2, “Electronic component-use material and electronic component using it” (Matsushita Electric Industrial Co., Ltd., priority 2001, dated 2005).
Like-named read-outs stand apart in the source and are kept apart here.

Details: room temperature (20-30° C.)

| Structure (SMILES) | Vapor Pressure | Vapor Pressure (cis-form) | Vapor Pressure (trans-form) |
| --- | --- | --- | --- |
| CC(C)=CC1C(C(=O)OC(C#N)c2cccc(Oc3ccccc3)c2)C1(C)C (stereo not drawn) [cyphenothrin] | 400,000 nPa | – | – |
| CC(C)=CC1C(C(=O)OCN2C(=O)C3=C(CCCC3)C2=O)C1(C)C (stereo not drawn) [d-tetramethrin] | 320,000 nPa | – | – |
| CC(C)C(C(=O)OC(C#N)c1cccc(Oc2ccccc2)c1)c1ccc(Cl)cc1 (stereo not drawn) [fenvalerate] | 37,000 nPa | – | – |
| CC(C)=CC1C(C(=O)OCc2coc(Cc3ccccc3)c2)C1(C)C (stereo not drawn) [resmethrin] | 1,500 nPa | – | – |
| Cc1c(F)c(F)c(COC(=O)[C@@H]2[C@H](/C=C(\Cl)C(F)(F)F)C2(C)C)c(F)c1F (racemic) [tefluthrin] | 80,000,000 nPa | – | – |
| CCOc1ccc([Si](C)(C)CCCc2ccc(F)c(Oc3ccccc3)c2)cc1 [silafluofen] | 731,500 nPa | – | – |
| CC1(C)C(C=C(Cl)Cl)C1C(=O)OC(C#N)c1cccc(Oc2ccccc2)c1 (stereo not drawn) [cypermethrin] | 230 nPa | – | – |
| CC1(C)[C@H](C(=O)O[C@H](C#N)c2cccc(Oc3ccccc3)c2)[C@@H]1C=C(Br)Br [deltamethrin] | 2,000 nPa | – | – |
| CC1(C)C(/C=C(\Cl)C(F)(F)F)C1C(=O)OC(C#N)c1cccc(Oc2ccccc2)c1 (stereo not drawn) [λ-cyhalothrin] | 200 nPa | – | – |
| CC1(C)[C@H](C(=O)O[C@H](C#N)c2cccc(Oc3ccccc3)c2)[C@@H]1C(Br)C(Br)(Br)Br (stereo partly drawn) [tralomethrin] | 0.017 nPa | – | – |
| CC1(C)[C@H](C(=O)O[C@H](C#N)c2cccc(Oc3ccccc3)c2)[C@@H]1/C=C\C(=O)OC(C(F)(F)F)C(F)(F)F [acrinathrin] | 390 nPa | – | – |
| CC1(C)C(C=C(Cl)Cl)C1C(=O)OC(C#N)c1ccc(F)c(Oc2ccccc2)c1 (stereo not drawn) [β-cyfluthrin] | – | cis-form 10/ nPa | 90 nPa |
| CC(C)=CC1C(C(=O)OCc2cccc(Oc3ccccc3)c2)C1(C)C (stereo not drawn) [phenothrin] | 160,000 nPa | – | – |
| CC(C)[C@H](C(=O)OC(C#N)c1cccc(Oc2ccccc2)c1)c1ccc(OC(F)F)cc1 (stereo partly drawn) [flucythrinate] | 1,200 nPa | – | – |
| CC(C)[C@@H](Nc1ccc(C(F)(F)F)cc1Cl)C(=O)OC(C#N)c1cccc(Oc2ccccc2)c1 (stereo partly drawn) [τ-fulvalinate] | 13,000 nPa | – | – |
| CC1(C)C(C=C(Cl)Cl)C1C(=O)OCc1cccc(Oc2ccccc2)c1 (stereo not drawn) [permethrin] | 45,000 nPa | – | – |
| Cc1c(COC(=O)[C@@H]2[C@H](/C=C(\Cl)C(F)(F)F)C2(C)C)cccc1-c1ccccc1 (racemic) [bifenthrin] | 24,000 nPa | – | – |
